row,SMILES,melting point
1,COC(=O)CCCc1cc2cc(Cl)ccc2n1S(=O)(=O)c1ccc2c(c1)CN(C(C)=O)CC2,50 to 52 °C
2,Cc1cc(-n2cnnc2)ccc1[N+](=O)[O-],208 to 210 °C
3,O=c1[nH]c2nc(SCc3ccccc3)ncc2cc1Oc1ccc(F)cc1F,240 to 244 °C
4,Cc1ccc(S(=O)(=O)NC(CCCCNC(=O)OCc2ccccc2)C(=O)O)cc1 (configuration not stated),120 to 121 °C
5,CN(C)c1c(C(N)=O)sc2cccc(Cl)c12,194 to 196 °C
6,CCCCCCCCCCCCCCC(=O)CC(=O)OC,51 to 53 °C
7,COc1cccc(CC(=O)N[C@H]2N=C(c3ccccc3)c3ccccc3N(C)C2=O)c1,198 to 199 °C
8,O=C(Nc1ccc(-n2nc(C(F)(F)F)cc2C(F)(F)F)cc1)c1cccc(CO)c1,160 to 162 °C
9,C[C@@H](CN(Cc1ccccc1)Cc1ccccc1)OC(=O)N1C(C)(C)COC1(C)C,117 °C
10,Cc1cc(C#N)cc(C(=O)Nc2ccc(F)c(F)c2)n1,170 °C
11,CC(C)(C)C(O)c1ccc(C2(c3ccccc3)OCCO2)cc1 (configuration not stated),90 to 93 °C
12,COC(=O)c1ccc(NC(=O)CCc2cnoc2-c2ccccc2)cc1,111 to 112 °C
13,CN1CC[C@@H](c2c(O)cc(O)c3c(=O)cc(-c4ccc(N)cc4)oc23)[C@@H]1CO,172 to 174 °C
14,NC(=O)[C@@H]1[C@H](Nc2ccnc3[nH]c(-c4ccc(N5CCOCC5)cc4)nc23)[C@H]2C=C[C@@H]1C2,240 to 244 °C
15,COc1cc(OC)n2sc(=NS(=O)(=O)Cc3ccccc3OC(F)F)nc2n1,151 to 152 °C
16,CCCCCNC(=O)N(C)c1cccc(-c2ccc(CCC(=O)O)cc2)c1,100 to 102 °C
17,O=C1CCC(Nc2nccc(-n3nnc4ccccc43)n2)CC1,205 to 206 °C
18,CCCCCCCCCCCCCC/C=C\CC[C@@H]1OC(=O)C(O)=C1O,64 to 66 °C
19,COc1ccc(N2C(=O)N(c3ccccc3)c3nc(Nc4ccccc4)ncc3C2C(C)C)cc1 (configuration not stated),229 to 235 °C
20,OCCCc1nc2cccnc2[nH]1,151 to 153 °C

row,SMILES,melting point
1,Cc1cc(-c2nc3cc(NC(=O)c4c(C(=O)N5CCC5)cnn4C)ccn3n2)ccn1,210 to 211 °C
2,CN1Cc2c(C(=O)OC3CCCC3)ncn2-c2cccc(Cl)c2C1=O,162 to 163 °C
3,CC(Cc1c[nH]c2ccccc12)(NC(=O)OC1C2CC3CC(C2)CC1C3)C(=O)NCC(NC=O)c1ccccc1 (configuration not stated),102 to 118 °C
4,Cc1ccc(C(=O)NCCO)cc1-n1c(C)cc(OCc2ccccc2CNC(=O)Nc2cc(C(C)(C)C)nn2-c2ccc(Cl)c(O)c2)c(Cl)c1=O,196 to 197 °C
5,CS(=O)(=O)c1ccc(C2=C(c3ccc(F)cc3)CC3(CC3)C2)cc1,140 to 142 °C
6,CC(CCCc1ccccc1)c1cc2c(cc1O)C1C(=O)CCCC1C(C)(C)O2 (configuration not stated),108 to 115 °C
7,CN(C)CCCNC(=O)Cn1cnc(-c2ccccc2)c1-c1ccccc1,92 to 94 °C
8,Cc1ccc(CNC(=O)C2=C(C(=O)Nc3ccc(Br)cc3F)CCCC2)cc1,167 to 168 °C
9,CCCc1ccc2c(c1)C(=O)N(c1ccc(C(C)C(=O)OC(C)(C)C)cc1)C2 (configuration not stated),110 to 115 °C
10,Cc1cc(N2CCN(c3ccccc3)CC2)c2c(N)c(C(N)=O)sc2n1,247 to 250 °C
11,CCOP(=O)(CNC(Cc1ccc(Cl)cc1)c1cc(C(C)(C)C)c(O)c(C(C)(C)C)c1)OCC (configuration not stated),120 to 121 °C
12,COC(=O)CCS(=O)(=O)c1ccc(NC(C)=O)cc1,156 to 158 °C
13,COc1cccc(C2C(C(=O)c3ccc(C)cc3)=C(O)C(=O)N2c2ccc(C)nn2)c1 (configuration not stated),265 °C
14,CCCCCCCCCCCC(=O)OC1CC(c2ccccc2)NC(c2ccccc2)C1 (configuration not stated),40 to 42 °C
15,C[C@H](NC(=O)OC(C)(C)C)[C@@H]1CCN(c2nc3c(cc2F)c(=O)n(N)c(=O)n3C2CC2)C1,175 to 177 °C
16,COc1ccc(Cl)cc1C(=O)NCC1CCOc2cc(OC)c(S(N)(=O)=O)cc21 (configuration not stated),202 °C
17,CN(C=C(c1ccccc1)c1ccccc1)C(=O)c1sc2ccc(C(F)(F)F)cc2c1O,147 to 150 °C
18,CN1CC(N2CCc3ccccc3C2)ON=C1CC(c1ccccc1)c1ccccc1 (configuration not stated),163 °C
19,COc1ccc(S(=O)(=O)n2ccc3ccnc(Nc4ccc(F)cc4)c32)cc1,125 to 127 °C
20,Cc1ccc(NC(=O)Nc2ccc(Oc3cc(Cl)ncn3)cc2)cc1,217 to 219 °C

row,SMILES,melting point
1,CCN1CC2CN(CC)CC(C1)C2O (configuration not stated),61.5 °C
2,Cc1c(NC(=O)CC(C)(C)C)cc2c(c1C)OC(C)(C)C2(O)Cc1ccc(C(C)C)cc1 (configuration not stated),177 to 178 °C
3,CCCCCCCCCCCCCCOC(=O)CS(=O)(=O)Nc1c(C(C)C)cccc1C(C)C,53 to 55 °C
4,Nc1sc2c(c1C(=O)c1cccc(C(F)(F)F)c1)CCN(CCc1ccccc1)C2,137 to 138 °C
5,CCOc1nc2ccccc2n(-c2ccc(Cl)cc2)c1=O,244 to 246 °C
6,Cc1nn(-c2ccccn2)c(C)c1S(N)(=O)=O,160 to 163 °C
7,C=C(C)c1ccc(O)cc1,167 to 168 °C
8,COc1ccc2c(c1)-c1nn(CCCl)c3ccc([N+](=O)[O-])c(c13)N2,264 to 265 °C
9,COc1ccc2c(c1)CCC1C2CCC2(C)C1CCC2N(C=O)CCN(C)C (configuration not stated),98 to 100 °C
10,CC(C)(C)C(=O)c1c[nH]c2ncc(N3CCc4ccccc4C3=O)nc12,113 to 115 °C
11,NC(=O)CNC(=O)c1ccc(-c2cccc3cc(Cc4cccc(C(F)(F)F)c4)sc23)nc1,191 to 192 °C
12,O=C(CCCN1CCOCC1)c1ccc2c(c1)Cc1cc(C(=O)CCCN3CCOCC3)ccc1O2,110 to 112 °C
13,Cc1nc(N)nc(-c2cccc3ccccc23)c1C,214 to 215 °C
14,Cc1cccc(NC(=O)N(C)Cc2cccc3c2C(=O)N(C2CCC(=O)NC2=O)C3=O)c1 (configuration not stated),212 to 215 °C
15,Cc1cc(-n2ncc(=O)[nH]c2=O)cc(Cl)c1C(C)(C#N)c1ccc(Cl)cc1 (configuration not stated),227 °C
16,Cc1cnc(C#N)c(C)c1[N+](=O)[O-],66 to 71 °C
17,Cc1ccc(NCc2ccc(/C=C/C(=O)O)cc2)cc1Nc1nccc(-c2cccnc2)n1,234 to 242 °C
18,CCCc1cc2cc(O)c(Cl)c(Cl)c2s1,50 to 51 °C

# Continued, values first:
row,melting point,SMILES
1,49 °C,CC1(Sc2ccccc2)C(=O)C2CC=CC21 (configuration not stated)
2,275 to 280 °C,COc1ccc(Cl)cc1-n1c(-c2ccc(C(F)(F)F)cc2)n[nH]c1=S
3,134 °C,O=C(NC1CCCCC1)c1ccc(F)c2c1CC(N(CCCc1c[nH]c3ccc(F)cc13)C1CCC1)CO2 (configuration not stated)
4,269 to 270 °C,O=C(O)c1ccc(COc2ccc3c(c2)CCN(C2CCN(C4CCC4)CC2)C3=O)cc1
5,145 °C,CSC(=NC#N)NS(=O)(=O)c1cc(Cl)ccc1Cl
6,127 to 128 °C,O=C(CS(=O)(=O)c1ccccc1)c1ccc(F)nc1
7,77 to 79 °C,CC1(C)C(=O)N(CCCl)C(=O)N1CCCl
8,151 to 153 °C,CC1(Cn2nc(Cc3ccc(Cl)cc3)oc2=O)Cn2cc([N+](=O)[O-])nc2O1 (configuration not stated)
9,141 to 142 °C,NC(=O)c1csnc1-c1cccc(C(F)(F)F)c1
10,228 to 230 °C,CNC(=O)Cn1c(-c2ccccn2)nc2cccnc21
11,67.6 to 69.9 °C,O=Cc1ccnc(OCC=CCNC(=O)CS(=O)Cc2ccco2)c1 (configuration not stated)
12,231 to 233 °C,O=c1[nH]c2ccc(CCCCN3CCN(c4cccc5ccccc45)CC3)cc2o1
13,141 to 143 °C,C[C@H](NC(=O)COCCNC(=O)c1ccc(Cl)cc1)C(=O)N[C@H](CCC(=O)OCc1ccccc1)C(N)=O
14,230 to 233 °C,COc1cc(-c2nc(-c3ccc(N(C)C)cc3)c(C)s2)cc(OC)c1O
15,258 to 260 °C,O=C(c1c[nH]c2cc(Br)ccc12)C(F)(F)F
16,239 °C,O=C(NCc1ccc(Cl)cc1)c1cn2c3c(cc(CN4CCOCC4)cc3c1=O)OC(c1ccccc1O)C2 (configuration not stated)
17,> 260 °C,CCCS(=O)(=O)Nc1ccc(-c2ccc(C(=O)O)c(=O)[nH]2)cc1
18,106 °C,CCC(CC)C(=O)Nc1nc(C)co1
19,189 to 190 °C,CCOC(=O)NNc1cc(C)c(-c2cccc(C#N)c2)nn1
20,193 to 194 °C,O=C(NCc1cccs1)[C@@H]1CCCN(c2cccc3c2C(=O)N(Cc2ccncc2)C3=O)C1

row,melting point,SMILES
1,78 to 82 °C,COc1cc(C)nc(NCSc2ccc(Cl)cc2)n1
2,226 to 228 °C,CC(=O)Nc1ccc(C=C2CCc3ncc(C)cc3C2=O)cc1
3,242 to 244 °C,O=C1CCC(c2ccc3c(c2)CCC2(CCN(C4CCC4)CC2)O3)=NN1
4,218 to 219 °C,COc1ncccc1-c1cccn2nc(Cl)nc12
5,132 °C,CC(CN1CCCC1)N1c2ccccc2Sc2ccc(C(=O)NC3CCCC3)cc21 (racemic)
6,106 to 110 °C,Cn1c(SCC(=O)NCCC[N+](C)([O-])Cc2ccc(Cl)c(Cl)c2)nc2ccccc21 (configuration not stated)
7,198 to 199 °C,CCN1C(=O)c2cnc(-c3ccccc3)nc2Nc2ccccc21
8,151 to 154 °C,C[C@H](Nc1ncnc2[nH]cnc12)c1oc2ccc(Br)cc2c(=O)c1-c1ccccc1
9,156 to 157 °C,CCCc1nc2cnc3ccccc3c2n1CCCCNS(=O)(=O)c1ccccc1
10,120 to 121 °C,Cc1ccc(Sc2nc(F)c(C#N)cc2F)cc1
11,160 °C,Cn1c(=Nc2cccnc2)sc2ncccc2c1=O
12,176 to 178 °C,N#Cc1ccc(CNC(=O)Cc2ccc(O)cc2)cc1
13,98 °C,O=C1CSC(=S)N1c1ccccn1
14,102 °C,CCN(CC)c1nc2ccnn2c2ncccc12
15,182 to 183 °C,Cc1c(C)c(N2CCN(c3ccc(C(F)(F)F)cc3)CC2)c(C)c2c1OC(C)(C)C2N1CCCCC1 (configuration not stated)
16,183 to 187 °C,O=C(O)COc1ccc2c(-c3cccc(F)c3F)noc2c1Cl
17,217 to 218 °C,CCC1(CC)c2cc(-c3ccc4c(c3)C(CC)(CC)c3cc(N(c5ccccc5)c5ccccc5)ccc3-4)ccc2-c2ccc(-c3nc4ccccc4s3)cc21
18,138 °C,CCC1(CO)COC2(CC(c3ccc(Cl)cc3)SC(c3ccc(Cl)cc3)C2)OC1 (configuration not stated)
19,204 to 206 °C,CCOC(=O)c1c(-c2ccc(F)cc2)c2ccccc2[nH]c1=O

# — a melting point compilation (Tetko et al.; mined from patent text by program, amines drawn as free bases though some values may be those of a salt)
